According to patent US12458021B2, “Microbiocidal derivatives” (SYNGENTA CROP PROTECTION AG, priority 2019, dated 2025):

Legend:
[1] = test system: Mycosphaerella graminicola (Septoria tritici); experiment: Mycosphaerella graminicola (Septoria tritici) / liquid culture (Septoria blotch); type: cell-based; settings: Zymoseptoria tritici, PDB potato dextrose broth, 24° C., 4-5 days after application, read-out: control of Mycosphaerella graminicola (inhibition of growth, photometric)
How it was run: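 Conidia from cryogenic storage were mixed into potato dextrose broth and added to test compound in DMSO. Plates were incubated at 24° C, and growth inhibition was read photometrically 4-5 days after application.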

Fusarium culmorum = experiment: microbe, parasite or virus in culture; type: cell-based; settings: read-out: control of Fusarium culmorum (inhibition of growth, photometric)
[2] = test system: Blumeria graminis f. sp. tritici (Erysiphe graminis f. sp. tritici); experiment: Blumeria graminis f. sp. tritici / wheat / leaf disc preventative (powdery mildew on wheat); type: in vivo; settings: foliar, wheat leaf segments cv. Kanzler, inoculated 1 day after application, assessed 6-8 days after application, read-out: control of Blumeria graminis f. sp. tritici (percent disease control compared to untreated)
From the text: Example B4: Blumeria graminis f. sp. tritici (Erysiphe graminis f. sp. tritici)/Wheat/Leaf Disc Preventative (Powdery Mildew on Wheat) Wheat leaf segments cv. Kanzler are placed on agar in a multiwell plate (24-well format) and sprayed with the formulated test compound diluted in water. The leaf disks are inoculated by shaking powdery mildew infected plants above the test plates 1 day after application. […] […]-192.

Pyrenophora teres = Pyrenophora teres / barley / leaf disc preventative (net blotch); type: in vivo; settings: foliar, barley leaf segments cv. Hasso, inoculated 2 days after application, assessed 5-7 days after application, read-out: control of Pyrenophora teres (disease control compared to untreated)
How it was run: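 Barley cv. Hasso leaf discs on agar were sprayed with diluted formulated compound, then inoculated with spore suspension 2 days later. Incubation at 20 °C, 65% rh, 12 h light/dark; disease control versus untreated assessed 5-7 days after application.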

[3] = test system: Glomerella lagenarium (Colletotrichum lagenarium); experiment: Glomerella lagenarium (Colletotrichum lagenarium) / liquid culture (anthracnose); type: cell-based; settings: Colletotrichum orbiculare, PDB potato dextrose broth, 24° C., 3-4 days after application, read-out: control of Glomerella lagenarium (inhibition of growth, photometric)
How it was run: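 Conidia from cryogenic storage suspended in potato dextrose broth and added to DMSO compound solution in plates. Incubated at 24° C; growth inhibition read photometrically 3-4 days after application.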

[4] = test system: Monographella nivalis (Microdochium nivale); experiment: Monographella nivalis (Microdochium nivale) / liquid culture (foot rot cereals); type: cell-based; settings: PDB potato dextrose broth, 24° C., 4-5 days after application, read-out: control of Monographella nivalis (inhibition of growth, photometric)
How it was run: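 Cryostored M. nivalis conidia mixed into potato dextrose broth and added to 96-well plates holding test compound in DMSO. Incubated at 24° C; growth inhibition read photometrically 4-5 days after application.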

Alternaria solani = Alternaria solani / tomato / leaf disc (early blight); type: in vivo; settings: foliar, tomato leaf disks cv. Baby, inoculated 2 days after application, assessed 5-7 days after application, read-out: control of Alternaria solani (percent disease control compared to untreated)
Experimental: Example B1: Alternaria solani/Tomato/Leaf Disc (Early Blight) Tomato leaf disks cv. Baby are placed on agar in multiwell plates (24-well format) and sprayed with the formulated test compound diluted in water. The leaf disks are inoculated with a spore suspension of the fungus 2 days after application. The inoculated leaf disks are incubated at 23° C./21° C. […] […]-185.

[5] = test system: Puccinia recondita f. sp. tritici; experiment: Puccinia recondita f. sp. tritici / wheat / leaf disc preventative (brown rust); type: in vivo; settings: foliar, wheat leaf segments cv. Kanzler, inoculated 1 day after application, assessed 7-9 days after application, read-out: control of Puccinia recondita f. sp. tritici, preventative (percent disease control compared to untreated)
How it was run: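 Wheat leaf segments (cv. Kanzler) on agar were sprayed with formulated compound, then inoculated with spores 1 day later. Segments were incubated at 19 °C, 75% rh with 12 h light/dark. Percent disease control versus untreated was scored 7–9 days after application.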

[6] = test system: Mycosphaerella arachidis (Cercospora arachidicola); experiment: Mycosphaerella arachidis (Cercospora arachidicola) / liquid culture (early leaf spot); type: cell-based; settings: PDB potato dextrose broth, 24° C., 4-5 days after application, read-out: control of Mycosphaerella arachidis (inhibition of growth, photometric)
How it was run: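 Conidia from cryogenic storage suspended in potato dextrose broth and added to compound in DMSO. Incubation at 24° C; growth inhibition read photometrically 4-5 days after application.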

[7] = test system: Botryotinia fuckeliana (Botrytis cinerea); experiment: Botryotinia fuckeliana (Botrytis cinerea) / liquid culture (gray mould); type: cell-based; settings: Vogels broth, 24° C., 3-4 days after application, read-out: control of Botryotinia fuckeliana (inhibition of growth, photometric)
How it was run: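 Botrytis cinerea conidia in Vogels broth were added to compound supplied as DMSO solution. Plates were incubated at 24 °C, and growth inhibition was read photometrically 3-4 days after application.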

[8] = test system: Phaeosphaeria nodorum (Septoria nodorum); experiment: Phaeosphaeria nodorum (Septoria nodorum) / wheat / leaf disc preventative (glume blotch); type: in vivo; settings: Parastagonospora nodorum, foliar, wheat leaf segments cv. Kanzler, inoculated 2 days after application, assessed 5-7 days after application, read-out: control of Phaeosphaeria nodorum (percent disease control compared to untreated)
How it was run: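 Wheat cv. Kanzler leaf discs on agar were sprayed with formulated compound diluted in water and inoculated with spores 2 days later. Discs were kept at 20° C, 75% rh, 12 h light/dark; percent disease control versus untreated was scored 5-7 days after application.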

[9] = test system: Magnaporthe grisea (Pyricularia oryzae); experiment: whole plant or invertebrate; type: in vivo; settings: foliar, read-out: control of Magnaporthe grisea (percent disease control compared to untreated)
Sclerotinia sclerotiorum = Sclerotinia sclerotiorum / liquid culture (cottony rot); type: cell-based; settings: PDB potato dextrose broth, mycelia fragments, 24° C., 3-4 days after application, read-out: control of Sclerotinia sclerotiorum (inhibition of growth, photometric)
How it was run: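 Mycelial fragments of a fresh liquid culture in potato dextrose broth were added to compound dispensed from DMSO solution. Plates were incubated at 24° C. Growth inhibition was measured photometrically 3–4 days after application.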

[10] = test system: Puccinia recondita f. sp. tritici; experiment: Puccinia recondita f. sp. tritici / wheat / leaf disc curative (brown rust); type: in vivo; settings: foliar, wheat leaf segments cv. Kanzler, compound applied 1 day after inoculation, assessed 6-8 days after application, read-out: control of Puccinia recondita f. sp. tritici, curative (percent disease control compared to untreated)
Experimental: Example B10: Puccinia recondita f. sp. tritici/Wheat/Leaf Disc Curative (Brown Rust) Wheat leaf segments cv. Kanzler are placed on agar in multiwell plates (24-well format). The leaf segments are inoculated with a spore suspension of the fungus. Plates are stored in darkness at 19° C. and 75% rh. The formulated test compound diluted in water is applied 1 day after inoculation. […] […]-185.

COc1ccc(Nc2cc(F)cc(F)c2)nc1C(=O)NC1(C(C)C)CCC1 [Compound P-179, 6-(3,5-difluoroanilino)-N-(1-isopropylcyclobutyl)-3-methoxy-pyridine-2-carboxamide]
≥ 80%: inhibition at 20 ppm [1] | inhibition at 20 ppm (Fusarium culmorum) | pest or weed control at 200 ppm [2] | pest or weed control at 200 ppm (Pyrenophora teres) | inhibition at 20 ppm [3] | inhibition at 20 ppm [4] | pest or weed control at 200 ppm (Alternaria solani) | pest or weed control at 200 ppm [5] | inhibition at 20 ppm [6] | inhibition at 20 ppm [7] | pest or weed control at 200 ppm [8]

COc1ccc(Nc2cc(F)cc(F)c2)nc1C(=O)NC1(C2CCC2)CCC1 [Compound P-176, N-(1-cyclobutylcyclobutyl)-6-(3,5-difluoroanilino)-3-methoxy-pyridine-2-carboxamide]
≥ 80%: inhibition at 20 ppm [1] | inhibition at 20 ppm (Fusarium culmorum) | pest or weed control at 200 ppm [2] | pest or weed control at 200 ppm (Pyrenophora teres) | inhibition at 20 ppm [3] | inhibition at 20 ppm [4] | pest or weed control at 200 ppm (Alternaria solani) | pest or weed control at 200 ppm [5] | inhibition at 20 ppm [6] | inhibition at 20 ppm [7] | pest or weed control at 200 ppm [8]

COc1ccc(Nc2cc(F)cc(F)c2)nc1C(=O)NC1CCC1(C)C (stereo not drawn) [Compound P-7, 6-(3,5-difluoroanilino)-N-(2,2-dimethylcyclobutyl)-3-methoxy-pyridine-2-carboxamide]
≥ 80%: inhibition at 20 ppm [1] | inhibition at 20 ppm (Fusarium culmorum) | pest or weed control at 200 ppm [2] | pest or weed control at 200 ppm [9] | pest or weed control at 200 ppm (Pyrenophora teres) | inhibition at 20 ppm [3] | inhibition at 20 ppm [4] | pest or weed control at 200 ppm (Alternaria solani) | pest or weed control at 200 ppm [5] | inhibition at 20 ppm [6] | inhibition at 20 ppm [7] | pest or weed control at 200 ppm [8]

COc1ccc(Nc2cc(F)cc(F)c2)nc1C(=O)NC1(C)CCCCC1 [Compound P-108, 6-(3,5-difluoroanilino)-3-methoxy-N-(1-methylcyclohexyl)pyridine-2-carboxamide]
≥ 80%: inhibition at 20 ppm [1] | inhibition at 20 ppm (Fusarium culmorum) | pest or weed control at 200 ppm [2] | pest or weed control at 200 ppm [9] | pest or weed control at 200 ppm (Pyrenophora teres) | inhibition at 20 ppm [3] | inhibition at 20 ppm [4] | inhibition at 20 ppm (Sclerotinia sclerotiorum) | pest or weed control at 200 ppm [5] | inhibition at 20 ppm [6]

COc1ccc(Nc2cc(F)cc(F)c2)nc1C(=O)NC1(C)CCCC1 [Compound P-107, 6-(3,5-difluoroanilino)-3-methoxy-N-(1-methylcyclopentyl)pyridine-2-carboxamide]
≥ 80%: inhibition at 20 ppm [1] | inhibition at 20 ppm (Fusarium culmorum) | pest or weed control at 200 ppm [2] | pest or weed control at 200 ppm [9] | pest or weed control at 200 ppm (Pyrenophora teres) | inhibition at 20 ppm [3] | inhibition at 20 ppm [4] | pest or weed control at 200 ppm (Alternaria solani) | pest or weed control at 200 ppm [10] | inhibition at 20 ppm (Sclerotinia sclerotiorum) | pest or weed control at 200 ppm [5] | inhibition at 20 ppm [6] | pest or weed control at 200 ppm [8]

CCC1(NC(=O)c2nc(Nc3cc(F)cc(F)c3)ccc2OC)CCC1 [Compound P-178, 6-(3,5-difluoroanilino)-N-(1-ethylcyclobutyl)-3-methoxy-pyridine-2-carboxamide]
≥ 80%: inhibition at 20 ppm [1] | inhibition at 20 ppm (Fusarium culmorum) | pest or weed control at 200 ppm [2] | pest or weed control at 200 ppm (Pyrenophora teres) | inhibition at 20 ppm [3] | inhibition at 20 ppm [4] | pest or weed control at 200 ppm (Alternaria solani) | pest or weed control at 200 ppm [10] | pest or weed control at 200 ppm [5] | inhibition at 20 ppm [6] | inhibition at 20 ppm [7] | pest or weed control at 200 ppm [8]
